System: NOMO1
Assay: cell viability relative to DMSO control; higher = less cytotoxic
Conditions: 48 h
Procedure, shortened: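 Leukemia cells (NOMO1 or SEM, 500 cells/well; P12-Ichikawa, 1000 cells/well) were seeded in 5 μl in 1536-well plates after at least four passages of adaptation to each medium. They received library compounds in DMSO by pin dosing, 11 threefold points from 47 μM to 0.79 nM. Luminescence with CellTiter-Glo One was read after 48 h at 37°C. Viability is stated per plate relative to DMSO wells, with cell-free wells as background.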

[1] = HPLM + 10% dialyzed FBS, 0.000781 µM
[2] = HPLM + 10% dialyzed FBS, 0.00234 µM
[3] = HPLM + 10% dialyzed FBS, 0.00702 µM
[4] = HPLM + 10% dialyzed FBS, 0.0211 µM
[5] = HPLM + 10% dialyzed FBS, 0.0632 µM
[6] = HPLM + 10% dialyzed FBS, 0.19 µM
[7] = HPLM + 10% dialyzed FBS, 0.569 µM
[8] = HPLM + 10% dialyzed FBS, 1.71 µM
[9] = HPLM + 10% dialyzed FBS, 5.12 µM
[10] = HPLM + 10% dialyzed FBS, 15.4 µM
[11] = HPLM + 10% dialyzed FBS, 46.1 µM
[12] = RPMI 5 mM glucose + 10% FBS, 0.000781 µM
[13] = RPMI 5 mM glucose + 10% FBS, 0.00234 µM
[14] = RPMI 5 mM glucose + 10% FBS, 0.00702 µM
[15] = RPMI 5 mM glucose + 10% FBS, 0.0211 µM
[16] = RPMI 5 mM glucose + 10% FBS, 0.0632 µM
[17] = RPMI 5 mM glucose + 10% FBS, 0.19 µM
[18] = RPMI 5 mM glucose + 10% FBS, 0.569 µM
[19] = RPMI 5 mM glucose + 10% FBS, 1.71 µM
[20] = RPMI 5 mM glucose + 10% FBS, 5.12 µM
[21] = RPMI 5 mM glucose + 10% FBS, 15.4 µM
[22] = RPMI 5 mM glucose + 10% FBS, 46.1 µM
[23] = RPMI 5 mM glucose + 10% dialyzed FBS, 0.000781 µM
[24] = RPMI 5 mM glucose + 10% dialyzed FBS, 0.00234 µM
[25] = RPMI 5 mM glucose + 10% dialyzed FBS, 0.00702 µM
[26] = RPMI 5 mM glucose + 10% dialyzed FBS, 0.0211 µM
[27] = RPMI 5 mM glucose + 10% dialyzed FBS, 0.0632 µM
[28] = RPMI 5 mM glucose + 10% dialyzed FBS, 0.19 µM
[29] = RPMI 5 mM glucose + 10% dialyzed FBS, 0.569 µM
[30] = RPMI 5 mM glucose + 10% dialyzed FBS, 1.71 µM
[31] = RPMI 5 mM glucose + 10% dialyzed FBS, 5.12 µM
[32] = RPMI 5 mM glucose + 10% dialyzed FBS, 15.4 µM
[33] = RPMI 5 mM glucose + 10% dialyzed FBS, 46.1 µM

SMILES: CSCC[C@@H](NC(=O)[C@@H](Cc1ccccc1)NC(=O)CNC(=O)CNC(=O)[C@@H](N)Cc1ccc(O)cc1)C(=O)O
- cell viability [1]: 77.4%
- cell viability [2]: 90.8%
- cell viability [3]: 110%
- cell viability [4]: 28.1%
- cell viability [5]: 110%
- cell viability [6]: 121%
- cell viability [7]: 121%
- cell viability [8]: 104%
- cell viability [9]: 92%
- cell viability [10]: 100%
- cell viability [11]: 109%
- cell viability [12]: 91.8%
- cell viability [13]: 89.3%
- cell viability [14]: 105%
- cell viability [15]: 22.1%
- cell viability [16]: 110%
- cell viability [17]: 103%
- cell viability [18]: 102%
- cell viability [19]: 100%
- cell viability [20]: 95.4%
- cell viability [21]: 101%
- cell viability [22]: 97.9%
- cell viability [23]: 87.1%
- cell viability [24]: 97.4%
- cell viability [25]: 94.6%
- cell viability [26]: 34.8%
- cell viability [27]: 88.3%
- cell viability [28]: 103%
- cell viability [29]: 97.6%
- cell viability [30]: 111%
- cell viability [31]: 99.9%
- cell viability [32]: 113%
- cell viability [33]: 109%

SMILES: CN1CCN(c2ccc([N+](=O)[O-])c3no[n+]([O-])c23)CC1
- cell viability [1]: 86.5%
- cell viability [2]: 101%
- cell viability [3]: 110%
- cell viability [4]: 114%
- cell viability [5]: 107%
- cell viability [6]: 111%
- cell viability [7]: 100%
- cell viability [8]: 105%
- cell viability [9]: 116%
- cell viability [10]: 86.6%
- cell viability [11]: 56.6%
- cell viability [12]: 88.4%
- cell viability [13]: 99.6%
- cell viability [14]: 87.6%
- cell viability [15]: 93.3%
- cell viability [16]: 92.9%
- cell viability [17]: 103%
- cell viability [18]: 89.5%
- cell viability [19]: 85.1%
- cell viability [20]: 94.1%
- cell viability [21]: 83.9%
- cell viability [22]: 68.1%
- cell viability [23]: 81.5%
- cell viability [24]: 78.1%
- cell viability [25]: 91.3%
- cell viability [26]: 85.6%
- cell viability [27]: 96.1%
- cell viability [28]: 95.6%
- cell viability [29]: 92.5%
- cell viability [30]: 95.9%
- cell viability [31]: 86.6%
- cell viability [32]: 87.4%
- cell viability [33]: 72.4%

From the supplement of paper PMC11451515
